Experimental data as given in article PMC4924623 (Molecular cancer therapeutics, 2012).

Biological target: CB2 receptor (hCB2) (Homo sapiens, UniProt P34972)
Experiment: competitive radioligand binding, [3H]CP-55, […] displacement

Chain of CB2 receptor (hCB2) (P34972 whole entry): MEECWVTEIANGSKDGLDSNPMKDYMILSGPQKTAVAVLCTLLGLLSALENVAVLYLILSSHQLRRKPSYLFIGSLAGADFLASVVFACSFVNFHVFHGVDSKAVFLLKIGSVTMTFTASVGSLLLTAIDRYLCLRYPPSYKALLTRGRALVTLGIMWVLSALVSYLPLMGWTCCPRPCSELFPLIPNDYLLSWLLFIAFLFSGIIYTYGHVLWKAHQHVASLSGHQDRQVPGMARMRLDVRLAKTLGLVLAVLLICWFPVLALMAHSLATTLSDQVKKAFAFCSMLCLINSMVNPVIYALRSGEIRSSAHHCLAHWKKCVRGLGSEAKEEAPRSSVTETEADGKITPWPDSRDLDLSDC

Ki: 41.2 µM
SMILES: C=C(C)[C@@H]1CC[C@]2(C(=O)O)CC[C@]3(C)[C@H](CC[C@@H]4[C@@]5(C)CC[C@H](O)C(C)(C)[C@@H]5CC[C@]43C)[C@@H]12 [BA, Betulinic acid]
